{
  "source": "patent US20200261391A1",
  "about": "“METHODS OF REDUCING THE RISK OF A CARDIOVASCULAR EVENT IN A STATIN-TREATED SUBJECT BY INCREASING SERUM AND PLASMA EPA AND DPA LEVELS” (Amarin Pharmaceuticals Ireland Limited, priority 2019, published 2020)",
  "format_in_all_cases": "in vivo, human",
  "key": {"[1]": {"tested_on": "patients with elevated triglyceride levels on statin therapy", "assay": "REDUCE-IT endpoints by EPA/AA ratio tertile in the icosapent ethyl group compared to placebo", "conditions": "EPA/AA ≤0.373068; on-treatment average of year 1, year 2, last visit"}, "[2]": {"assay": "REDUCE-IT change from baseline blood pressure (mixed effects model)", "conditions": "ITT", "method": "Blood pressure was measured using a standardized process: • Patient sat for ≥5 minutes with feet flat on the floor and measurement arm supported so that the midpoint of the manometer cuff was at heart level; and • Used a mercury sphygmomanometer or automatic blood pressure device with an appropriately sized cuff with the bladder centered over the brachial artery.\nBlood pressure was recorded to the nearest 2 mmHg mark on the manometer or to the nearest whole number on an automatic device. A blood pressure reading was repeated 1 to 2 minutes later, and the second reading recorded to the nearest 2 mmHg mark.\nIt is contemplated that a number of factors contribute to the significant reduction in the cardiovascular risk. Without intending to be bound by any particular theory, one of the contributing factors might relate to the dose and formulation of the icosapent ethyl administered to the patients, in marked contrast to previous studies of omega-3 fatty acid studies. An additional contributing factor could relate to the patients' blood pressure. […] These differences appear to be modest, but it is contemplated, that they might contribute to the benefits of icosapent ethyl. […]"}, "[3]": {"tested_on": "patients with elevated triglyceride levels on statin therapy", "assay": "REDUCE-IT endpoints by EPA/AA ratio tertile in the icosapent ethyl group compared to placebo", "method": "This is a study aimed towards determining a relative risk reduction (RRR) between subjects stratified by EPA tertiles in the REDUCE-IT clinical trial described above in Example 1. Samples were obtained from those subjects and total EPA and AA levels in human serum and plasma samples were determined according at least to the methods described in Example 7.\nThe objective of this study is to assess the effects of administering icosapent ethyl at 4 g per day to patients from the REDUCE-IT trial of Example 1. More specifically, patients from the REDUCE-IT trial of Example 1 were stratified by their EPA levels into one of three tertiles. Following stratification, the objective was to determine if the RRR differs between patients having EPA levels in the three different tertiles. For the data collected as shown in Tables 38-43 and FIGS. 52, 53, and 56-59, the tertiles were established based on data collected from subjects at 1 year, 2 years, and last visit following icosapent ethyl administration compared to placebo. Data are presented as an average of 1 year, 2 year, […], and end of study values. The data was further analyzed use both pooled and unpooled statistically methods."}, "[4]": {"tested_on": "patients with elevated triglyceride levels on statin therapy", "assay": "REDUCE-IT recurrent and total ischemic events (Example 2; Andersen-Gill and Wei-Lin-Weissfeld models)", "conditions": "for total key secondary endpoint events, HR / total key secondary endpoint events, number: without adjustment for stratification differences", "description": "The following study was a multi-center, placebo-controlled clinical trial the details of which are described above in Example 1, the REDUCE-IT design. […] Randomization was stratified by cardiovascular risk cohort (i.e., secondary or primary prevention), use of ezetimibe, and by geographic region.\nThe primary outcome for the study was total recurrent events consisting of the composite of cardiovascular death, nonfatal myocardial infarction, nonfatal stroke, coronary revascularization, or hospitalization for unstable angina. Recurrent event analyses were also performed for the key secondary endpoint, a composite of cardiovascular death, non-fatal myocardial infarction, or non-fatal stroke. For each of these composite endpoints, the effects of icosapent ethyl in the secondary and primary prevention strata were examined separately.\nDemographic and baseline disease characteristics are presented using frequencies and percentages for categorical variables and medians with interquartile ranges for continuous variables. Between treatment group comparisons were derived using the chi-square test for categorical variables and Wilcoxon rank test for continuous variables. All clinical endpoint events used in the efficacy analyses were adjudicated by an independent Clinical Endpoint Committee (CEC) who were blinded to the treatment assignment. Since the primary efficacy endpoint was the time from randomization to the first occurrence of any component of the composite endpoint, and recurrence of such events within each patient is possible, a pre-specified analysis using a Cox proportional-hazard with the counting-process formulation of Andersen and Gill was performed to model the first and all recurrent cardiovascular events. Hazard ratios (HR) and corresponding 95% confidence intervals (CI) are reported from this model. In addition, as a marginal model and an extension of survival models based on the Cox proportional hazard model, the modified Wei-Lin-Weissfeld (WLW) method for analysis of recurrent events in the presence of deaths was carried out as a supportive analysis. In addition, as pre-specified, a recurrent event analysis using the Andersen-Gill and Wei-Lin-Weissfeld methods were carried out for the individual primary event components other than CV death. Though not pre-specified, additional recurrent event analyses were performed for the key secondary endpoint, which is a composite of CV death, non-fatal MI, or non-fatal stroke, and for the primary endpoint and the key secondary endpoint in the primary and secondary prevention strata to explore further the consistency of clinical benefit of icosapent ethyl. In subgroup analyses of the two cardiovascular risk strata (i.e., primary and secondary prevention), site-level discrepancies in cardiovascular risk group assignment occurring at entry and detected during the study (1.8%) were adjusted to conform with documented medical history data prior to randomization. All efficacy analyses were performed according to the intention-to-treat principle. All tests were based on a 2-sided nominal significance level of 5% with no adjustments for multiple comparisons."}, "[5]": {"conditions": "EPA/AA >0.373068 to ≤0.727974, on-treatment average"}, "[6]": {"conditions": "EPA/AA >0.727974, on-treatment average"}, "[7]": {"conditions": "Wei-Lin-Weissfeld model, vs placebo"}, "[8]": {"conditions": "per 100 patients treated for five years"}},
  "note": "Where “and” joins values, the source holds several entries; their conditions need not be identical. Equal values may be shown once.",
  "data": [
    {"molecule": "CC/C=C\\C/C=C\\C/C=C\\C/C=C\\C/C=C\\CCCC(=O)OCC", "note": "[icosapent ethyl, eicosapentaenoic acid ethyl ester]", "values": [
      {"measurement": "HR (95% CI), Primary Endpoint, Lowest EPA/AA ratio tertile vs Placebo", "setting": "[1]", "result": "0.83 (0.71, 0.97)"},
      {"measurement": "diastolic blood pressure, average placebo-corrected reduction from baseline", "setting": "[2]", "result": 0.5, "unit": "mm Hg"},
      {"measurement": "systolic blood pressure, average placebo-corrected reduction from baseline", "setting": "[2]", "result": 1.3, "unit": "mm Hg"},
      {"measurement": "key secondary endpoint HR, middle EPA/AA tertile vs. placebo", "setting": "[3]; EPA/AA >0.373068 to ≤0.727974", "result": 0.61},
      {"measurement": "primary endpoint HR, middle EPA/AA tertile vs. placebo", "setting": "[3]; EPA/AA >0.373068 to ≤0.727974", "result": 0.70},
      {"measurement": "HR (95% CI), Key Secondary Endpoint, Middle EPA/AA ratio tertile vs Placebo", "setting": "[3]; [5]", "result": "0.61 (0.49, 0.75)"},
      {"measurement": "HR (95% CI), Primary Endpoint, Middle EPA/AA ratio tertile vs Placebo", "setting": "[3]; [5]", "result": "0.70 (0.59, 0.82)"},
      {"measurement": "key secondary endpoint HR, highest EPA/AA tertile vs. placebo", "setting": "[3]; EPA/AA >0.727974", "result": 0.65},
      {"measurement": "primary endpoint HR, highest EPA/AA tertile vs. placebo", "setting": "[3]; EPA/AA >0.727974", "result": 0.67},
      {"measurement": "HR (95% CI), Key Secondary Endpoint, Highest EPA/AA ratio tertile vs Placebo", "setting": "[3]; [6]", "result": "0.65 (0.54, 0.80)"},
      {"measurement": "HR (95% CI), Primary Endpoint, Highest EPA/AA ratio tertile vs Placebo", "setting": "[3]; [6]", "result": "0.67 (0.57, 0.79)"},
      {"measurement": "key secondary endpoint HR, lowest EPA/AA tertile vs. placebo", "setting": "[3]; EPA/AA ≤0.373068", "result": 0.94},
      {"measurement": "primary endpoint HR, lowest EPA/AA tertile vs. placebo", "setting": "[3]; EPA/AA ≤0.373068", "result": 0.83},
      {"measurement": "HR (95% CI), Key Secondary Endpoint, Lowest EPA/AA ratio tertile vs Placebo", "setting": "[3]; EPA/AA ≤0.373068, on-treatment average", "result": "0.94 (0.78, 1.13)"},
      {"measurement": "primary endpoint HR, highest EPA/AA tertile vs. placebo", "setting": "[3]; FIG. 55, ITT, EPA/AA >0.7403", "result": "0.70 and 0.63"},
      {"measurement": "primary endpoint HR, lowest EPA/AA tertile vs. placebo", "setting": "[3]; FIG. 55, ITT, EPA/AA ≤0.3845", "result": 0.88},
      {"measurement": "first events, reduction", "setting": "[4]; Example 2", "result": 25, "unit": "%"},
      {"measurement": "second events, reduction", "setting": "[4]; Example 2", "result": 28, "unit": "%"},
      {"measurement": "third or more events, reduction", "setting": "[4]; Example 2", "result": 50, "unit": "%"},
      {"measurement": "total events for primary composite efficacy outcome, relative risk reduction", "setting": "[4]; Example 2", "result": 32, "unit": "%"},
      {"measurement": "first occurrence of primary composite endpoint, HR", "setting": "[4]; [7]", "result": 0.75},
      {"measurement": "second occurrence of primary composite endpoint, HR", "setting": "[4]; [7]", "result": 0.72},
      {"measurement": "additional primary endpoint events, total reduction vs placebo (number)", "setting": "[4]; in vivo", "result": 179},
      {"measurement": "first primary endpoint events, total reduction vs placebo (number)", "setting": "[4]; in vivo", "result": 196},
      {"measurement": "second primary endpoint events, total reduction vs placebo (number)", "setting": "[4]; in vivo", "result": 164},
      {"measurement": "total primary endpoint events, number", "setting": "[4]; overall trial, placebo 1,724", "result": "1,185"},
      {"measurement": "total key secondary endpoints, number", "setting": "[4]; overall, placebo 861", "result": 590},
      {"measurement": "total key secondary endpoints, HR", "setting": "[4]; overall, vs placebo", "result": 0.71},
      {"measurement": "cardiovascular deaths prevented", "setting": "[4]; [8]", "result": 1},
      {"measurement": "coronary revascularizations prevented", "setting": "[4]; [8]", "result": 8},
      {"measurement": "episodes of unstable angina prevented", "setting": "[4]; [8]", "result": 2},
      {"measurement": "myocardial infarctions prevented", "setting": "[4]; [8]", "result": 4},
      {"measurement": "strokes prevented", "setting": "[4]; [8]", "result": 1},
      {"measurement": "additional primary endpoint events, number", "setting": "[4]; placebo 360", "result": 131},
      {"measurement": "second primary endpoint events, number", "setting": "[4]; placebo 463", "result": 299},
      {"measurement": "first primary endpoint events, number", "setting": "[4]; placebo 901", "result": 705},
      {"measurement": "total key secondary endpoints, HR", "setting": "[4]; primary prevention stratum", "result": 0.71},
      {"measurement": "total primary endpoint events, HR", "setting": "[4]; primary prevention stratum, adjusted stratification", "result": 0.79},
      {"measurement": "total primary endpoint events, number", "setting": "[4]; primary prevention stratum, adjusted stratification, placebo 256", "result": 197},
      {"measurement": "total primary endpoint events, HR", "setting": "[4]; primary prevention stratum, without adjusting for stratification differences", "result": 0.86},
      {"measurement": "total primary endpoint events, number", "setting": "[4]; primary prevention stratum, without adjusting for stratification differences, placebo 263", "result": 221},
      {"measurement": "total key secondary endpoint events, HR", "setting": "[4]; primary prevention", "result": 0.78},
      {"measurement": "total key secondary endpoint events, number", "setting": "[4]; primary prevention, placebo 142", "result": 112},
      {"measurement": "total key secondary endpoints, HR", "setting": "[4]; secondary prevention stratum", "result": 0.70},
      {"measurement": "total primary endpoint events, HR", "setting": "[4]; secondary prevention stratum, adjusted stratification", "result": 0.66},
      {"measurement": "total primary endpoint events, number", "setting": "[4]; secondary prevention stratum, adjusted stratification, placebo 1,468", "result": 988},
      {"measurement": "total primary endpoint events, HR", "setting": "[4]; secondary prevention stratum, without adjusting for stratification differences", "result": 0.65},
      {"measurement": "total primary endpoint events, number", "setting": "[4]; secondary prevention stratum, without adjusting for stratification differences, placebo 1,461", "result": 964},
      {"measurement": "total key secondary endpoint events, HR", "setting": "[4]; secondary prevention stratum", "result": 0.69},
      {"measurement": "total key secondary endpoint events, number", "setting": "[4]; secondary prevention stratum, placebo 671", "result": 478},
      {"measurement": "total primary endpoint events, HR", "setting": "[4]; vs placebo, overall trial", "result": 0.68}
    ]}
  ]
}
